# Measurements: patent publication US5872107A, “Treatment of urogenital cancer with boron neutron capture therapy” (Emory University, priority 1997, dated 1999)
# “Also recorded” adds a separate entry of the source.
# What was measured:
# [1] = test system: human lymphoma (CEM) cells; experiment: Cellular uptake and intracellular phosphorylation, CEM cells; assay type: cell-based
# From the text: (§1) Carboranyl-containing nucleosides and oligonucleotides, which are lipophilic and have a high content of boron atoms, are particularly suited for use in BNCT of urogenital tumors. Preferred compounds include 5-carboranyl-2'-deoxyuridine (CDU) and 5-o-carboranyl-1-(2-deoxy-2-fluoro-β-D-arabinofuranosyl)uracil (CFAU). […] The entrapment of this molecule in cells allows for the enhancement of the tumor-to-blood ratio for BNCT. CFAU has increased glycosidic bond stability conferred by the β-fluorine group positioned on the 2'-carbon of the nucleoside.
# It has been discovered that boron neutron capture therapy, optionally combined with antisense oligonucleotide therapy, can be used in the treatment of urogenital cancer, and in particular, that of the prostate, bladder, and kidney. Any boron-containing compound that is sufficiently lipophilic to pass through the appropriate urogenital membranes in a quantity high enough to achieve therapy on irradiation with low-energy neutrons can be used. Carboranyl-containing nucleosides and oligonucleotides, which are lipophilic and have a high content of boron atoms, are particularly suited for use in BNCT of urogenital cancer. Preferred compounds include 5-carboranyl-2'-deoxyuridine (CDU) and 5-o-carboranyl-1-(2-deoxy-2-fluoro-β-D-arabinofuranosyl)uracil (CFAU). […] The entrapment of this molecule in cells allows the enhancement of the tumor-to-blood ratio for BNCT. CFAU has increased glycosidic bond stability conferred by the β-fluorine group positioned on the 2'-carbon of the nucleoside.
# [2] = test system: xenographed human prostate tumor; experiment: Accumulation of CDU in xenographed human prostate tumor, brain and serum of nude mice; assay type: in vivo
# From the text: The development of the immunodeficient athymic nude mouse has permitted the establishment of human tumors in serial transplantation which provides a representative model of the human disease state. This system, which uses the subcutaneous or subrenal capsule assay is particularly useful in assessing new therapeutic strategies in the treatment of human malignancies and ensures the availability of a constant source of non-attenuated fresh human tumor cells.
# Any of these systems can be used to evaluate the extent of accumulation of a selected boron-containing compound in a selected urogenital cancer cell line, or the effect of irradiation of the accumulated compound on that cell line. A detailed example of the evaluation of the accumulation of CDU in a xenographed human prostate tumor obtained from nude mice treated intraperitoneally with 5 mg/kg of tritiated CDU (15 μCi/mouse) is provided in Example 5.
# To analyze the concentration of ^10 B-containing compounds in urogenital tissue, the tumor is removed from the animal and then lyophylized. The ^10 B-containing compounds are extracted with a methanol/water solution, and then counted using known methods.
# Table 1 provides a summary of the accumulation of CDU in a xenographed human prostate tumor on nude mice treated intraperitoneally with 5 mg/kg of tritiated CDU (15 μCu/mouse). […] The compound partitions in a ratio of approximately 2:1 in the prostate versus blood serum.
# [3] = Urinary excretion of unchanged CDU and CDU glucuronide; assay type: in vivo, Sprague-Dawley rats
# Method: On the morning of the experiment, rats were placed in individual metabolism cages. CDU […]) was administered intravenously in 0.1 ml of DMSO to the rats over a one minute period. Blood samples (0.35 ml) were collected prior to and at […], 2, 3, 4, 5, 6, 7 and 8 hour after CDU administration from the cannula into heparinized polypropylene microcentrifuge tubes. Blood volume was replaced with an equal volume of normal saline. Blood samples were immediately centrifuged at 2000 g for 5 minutes and plasma was separated and frozen at -20° C. until analysis. Urine was collected for 24 hour following CDU administration. Urine volume was measured and samples were frozen at -20° C. until analysis.
# For the determination of unchanged CDU in urine, urine samples were diluted 1:50 with distilled deionized water and 100 μl of internal standard (50 μg/ml progesterone) was added and injected onto the HPLC. Concentrations of CDU glucuronide in urine were determined after hydrolyzing the glucuronate with β-glucuronidase as previously described. Glucuronide concentrations were calculated as the difference between CDU concentrations measured after hydrolysis and before hydrolysis with β-glucuronidase.
# [4] = Partition coefficient of CDU in octanol:phosphate buffer (pH 7.4); assay type: physicochemical
# Method: The partition coefficient (P) of CDU was determined in octanol:phosphate buffer (pH 7.4). The octanol and aqueous phases were equilibrated by shaking together for 1 hour at 20° C. Two milliliters (2 ml) of octanol containing 0.5 mg/ml of CDU were shaken with 4 ml of buffer on a horizontal shaker for 12, hour at 25° C. Tubes were centrifuged to separate the phases and both phases were analyzed by HPLC as described below. The partition coefficient was calculated by dividing the CDU concentration in octanol by the CDU concentration in buffer. Results are reported as log P values.
# The average octanol:phosphate buffer, pH 7.4, P value was determined to be 3090.
# [5] = test system: primary human peripheral blood mononuclear (PBM) cells; experiment: Cellular uptake and intracellular phosphorylation, PBM cells; assay type: cell-based
# From the text: as §1
# It has been discovered that boron neutron capture therapy, optionally combined with antisense oligonucleotide therapy, can be used in the treatment of urogenital cancer, and in particular, that of the prostate, bladder, and kidney. Any boron-containing compound that is sufficiently lipophilic to pass through the appropriate urogenital membranes in a quantity high enough to achieve therapy on irradiation with low-energy neutrons can be used. Carboranyl-containing nucleosides and oligonucleotides, which are lipophilic and have a high content of boron atoms, are particularly suited for use in BNCT of urogenital cancer. Preferred compounds include 5-carboranyl-2'-deoxyuridine (CDU) and 5-o-carboranyl-1-(2-deoxy-2-fluoro-β-D-arabinofuranosyl)uracil (CFAU). […]
# [6] = Toxicity study: weight change and survival of normal Swiss mice; assay type: in vivo, Swiss female mice; details: 30 mg/kg/day i.p.
# Method: A toxicity study was conducted on 6-week-old Swiss female mice treated with CDU and CFAU at 30 mg/kg/day. The compounds were prepared in sterile DMSO and injected intraperitoneally (0.1 mL). DMSO and water were used as controls, with the same injection volume as that used for the CDU and CFAU solutions. The dosing schedule used was once a day for 6 days, and the mice were weighed biweekly for 28 days. Results shown in Table 3 somewhat correlate with the cytotoxicity assays in vitro.
# [7] = brain, 1 hr after CDU, 5 mg/kg tritiated CDU i.p.
# [8] = brain, 2 hr after CDU, 5 mg/kg tritiated CDU i.p.
# [9] = serum, 1 hr after CDU, 5 mg/kg tritiated CDU i.p.
# [10] = serum, 2 hr after CDU, 5 mg/kg tritiated CDU i.p.
# [11] = tumor, 2 hr after CDU, 5 mg/kg tritiated CDU i.p.
substance,measurement,setting,value
5-carboranyl-2'-deoxyuridine [CDU],intracellular formation of CDU 5'-monophosphate (in words),[1]; cells not separated (CEM and PBM named),CDU 5'-monophosphate is formed intracellularly; also recorded: CDU-5'-monophosphate is formed intracellularly
same,intracellular phosphorylation in CEM cells (in words),[1]; human lymphoma (CEM) cells,intracellularly phosphorylated
same,uptake by CEM cells (in words),[1]; human lymphoma (CEM) cells,taken up
same,"Mean DPM/mg of dry weight, brain, 1 hr",[2]; [7],42.8 DPM/mg of dry weight
same,"pmole/mg of dry weight, brain, 1 hr",[2]; [7],0.32 pmole/mg of dry weight
same,"Mean DPM/mg of dry weight, brain, 2 hr",[2]; [8],23.4 DPM/mg of dry weight
same,"pmole/mg of dry weight, brain, 2 hr",[2]; [8],0.17 pmole/mg of dry weight
same,accumulation in the prostate cancer cells (in words),"[2]; over brain tissue and serum, 5 mg/kg tritiated CDU i.p.","significantly accumulates in the prostate cancer cells, and preferentially so, over brain tissue and serum"
same,"Mean DPM/mg of dry weight, serum, 1 hr",[2]; [9],181.0 DPM/mg of dry weight
same,"pmole/mg of dry weight, serum, 1 hr",[2]; [9],1.33 pmole/mg of dry weight
same,"Mean DPM/mg of dry weight, serum, 2 hr",[2]; [10],111.0 DPM/mg of dry weight
same,"pmole/mg of dry weight, serum, 2 hr",[2]; [10],0.82 pmole/mg of dry weight
same,"pmole/mg of dry weight, tumor, 1 hr","[2]; tumor, 1 hr after CDU, 5 mg/kg tritiated CDU i.p.",3.60 pmole/mg of dry weight
same,"Mean DPM/mg of dry weight, tumor, 1 hr","[2]; tumor, 1 hr after CDU, 5 mg/kg tritiated CDU i.p. (15 μCi/mouse)",489.1 DPM/mg of dry weight
same,"Mean DPM/mg of dry weight, tumor, 2 hr",[2]; [11],256.7 DPM/mg of dry weight
same,"pmole/mg of dry weight, tumor, 2 hr",[2]; [11],1.89 pmole/mg of dry weight
same,unchanged CDU in urine (in words),[3]; 24 hours following 25 mg/kg i.v.,No unchanged CDU was detected in urine; also recorded: No unchanged CDU was recovered in urine
same,renal excretion (in words),[3]; rat,not renally excreted to any significant extent
same,renal tubular reabsorption (in words),"[3]; rat, inferred from absence of unchanged CDU in urine",virtually complete renal tubular reabsorption
same,CDU glucuronide in urine (in words),"[3]; urine treated with β-glucuronidase, 25 mg/kg i.v., 25 mg/kg",no trace of CDU glucuronide in urine; also recorded: no glucuronide metabolites were detected in urine samples
same,lipophilicity (in words),[4],highly lipophilic
same,log P,[4],3.49
same,intracellular phosphorylation in PBM cells (in words),[5],intracellularly phosphorylated
same,uptake by PBM cells (in words),[5],taken up
same,weight loss after 1 week (in words),[6]; CFAU and CDU compared,comparable weight loss after 1 week
same,weight recovery at 4 weeks (in words),[6]; surviving animals,all the surviving animals recovered their weight loss to control untreated levels
same,% of weight gained or lost on week 1,"[6]; week 1, once a day for 6 days",-7.4%
same,% of weight gained or lost on week 2,"[6]; week 2, once a day for 6 days",0.1%
same,% of weight gained or lost on week 3,"[6]; week 3, once a day for 6 days",4.8%
same,% of weight gained or lost on week 4,"[6]; week 4, once a day for 6 days",11.2%
same,"survival at week 4, alive/total","[6]; week 4, once a day for 6 days",5/5
same,survival at week 4 (%),"[6]; week 4, once a day for 6 days, 40320 min",100%
